Patent US20130041036A1, “FERULIC ACID AS FEED SUPPLEMENT IN BEEF CATTLE TO PROMOTE ANIMAL GROWTH AND IMPROVE THE MEAT QUALITY OF THE CARCASS AND THE MEAT” (BIOKAB, S.A. DE C.V., priority 2011, published 2013)
“Also recorded” adds a separate entry of the source. Marks after values point to notes of the source that are not given here.

Key:
feedlot steers = settings: steers supplemented with ractopamine compared to the control; cited from earlier work
Longissimus dorsi muscle [1] = assay: Sensory test of Longissimus dorsi meat by trained panel; format: in vivo, beef cattle of commercial breeds; settings: for Tenderness / Connective tissue perception / Fat perception / Flavor intensity / Juiciness / Odor intensity: cooked meat; for Tenderness: 10 cm scale, zero extremely hard, 10 extremely tender; for Connective tissue perception / Fat perception / Flavor intensity / Juiciness / Odor intensity / Appearance / Overall Color: semi-structured 10 cm scale; for Appearance / Overall Color: raw meat
Procedure: (§1) Subsequent to the carcass classification the rib eye cut (LD muscle) was obtained of the left side of each selected carcass. Meat samples were identified, vacuum packed, frozen at -18° C., and then shipped under refrigeration by air courier to the Centro de Investigación en Alimentacion y Desarrollo A.C. (CIAD) facilities at Hermosillo, Sonora, to perform quality analysis of the meat: Chemical analysis (moisture and fat content), physicochemical (objective color parameters L*, which measures the brightness of the meat, a* value, which measures the redness, and b* value which measures the tendency towards yellowness, and hue-angle, Warner-Bratzler shear force, water retention capacity and pH). A sensory test was done by a trained panel consisting of 10 members using a descriptive test with a semi-structured 10 cm scale, where zero indicates a […] of the attribute and a 10 indicates a favorable rating (e.g. tenderness, zero indicates extremely hard and 10 extremely tender). The sensory attributes that were measured: total color and overall appearance of raw meat, flavor, odor, color, tenderness, fat perception, juiciness, and perception of connective tissue in cooked meat. […] To measure cooking loss, the meat sample was weighed before and immediately after reaching the final cooking temperature, which was expressed in percentage. All data for response variables of the quality of carcass and meat were analyzed under a completely randomized design, with a one-way ANOVA, taking the experimental treatments as a fixed effect. For carcass BFT and REA characteristics the hot carcass weight was used as a covariable. Regarding the sensory attributes, the model also included the effect of panelist as the repeated measure. The variables of the shelf life study were analyzed as a completely randomized design with factorial arrangement, factor A being the treatment with 4 levels, and factor B, the storage time with 5 levels. When there were statistical differences (P<0.05) between treatments, average comparisons were performed by the multiple range test of Tukey.

beef cattle = assay: Feedlot performance and carcass quality of beef cattle; format: in vivo, beef cattle of commercial breeds; settings: for CCW: cold carcass weight: carcass 24 hr at 0° C.; for PH45: pH at 45 min postmortem: Longissimus dorsi
Description: In this study, all animals received the same prophylactic management, and all were subsequently assigned randomly to one of the following four treatments (25 animals per treatment, divided into pens of 5 experimental units per pen):
Definition of the 4 Treatments
Treatment 1 (Control): control animals (receiving only the basal diet without supplementation of the additive).
Treatment 2 (Ferulic Acid for 30 days=FA30): Animals receiving the basal diet supplemented with 240 ppm of ferulic acid during the last 30 days of the fattening period.
Treatment 3 (Ferulic Acid for 60 days=FA60): Animals receiving the basal diet supplemented with 240 ppm of ferulic acid during the last 60 days of the fattening period.
Treatment 4 (Zilmax commercial Zilpaterp; =ZX): Animals receiving the basal diet and supplemented with 6 ppm hydrochloride zilpaterol during the last 30 days of the fattening period.
During the experimental phase, all animals received a feeding ration consisting of 20% fodder and 80% concentrate. The crop was corn stover, while the concentrate consisted of different proportions of rolled corn grain, soybean meal, canola meal, distillery grains, and molasses. The ration was provided twice a day, and there was free access to the food and drinking water.
Initial and final live weight was recorded in the productive performance trial. The performance test lasted 60 days. Daily feed intake was evaluated, weight was recorded at the beginning and end of experimental period, in order to estimate the average daily gain and feed conversion.
Before concluding the performance test, 2 animals were randomly selected per pen (10 per treatment) for humanitarian slaughter. The animals were sacrificed following the standard procedures of the official Mexican standards in the municipal slaughterhouse of Guadalajara, Jalisco. Animal live weight was recorded before slaughter.
During the slaughter process, the pH of the carcass at 45 min postmortem in the Longissimus dorsi muscle (LD) was measured and the weight of the hot carcass was recorded. The carcasses were refrigerated at 0° C. for 24 hr. After this, the final pH was measured and cold carcass weight recorded, and the classification of carcasses was carried out, recording the Rib eye area (REA) in square inches, back fat thickness (BFT) in mm, and the marbling in the 12th intercostal space of the LD; the skeletal maturity and conformation of the carcass was also evaluated (10 carcasses per treatment). The assessment of quality of the carcass was made following the procedures described by the US Department of Agriculture (USDA, 2000).
(§2) All data for response variables of the quality of carcass and meat were analyzed under a completely randomized design, with a one-way ANOVA, taking the experimental treatments as a fixed effect. For carcass BFT and REA characteristics the hot carcass weight was used as a covariable. Regarding the sensory attributes, the model also included the effect of panelist as the repeated measure. The variables of the shelf life study were analyzed as a completely randomized design with factorial arrangement, factor A being the treatment with 4 levels, and factor B, the storage time with 5 levels. When there were statistical differences (P<0.05) between treatments, average comparisons were performed by the multiple range test of Tukey. All data was processed in the NCSS statistical package (NCSS, 2001).

Longissimus dorsi muscle [2] = assay: Chemical and physicochemical quality of Longissimus dorsi muscle from supplemented cattle; format: in vivo, beef cattle of commercial breeds; settings: for SF: shear force: Warner-Bratzler; for L* value: fresh meat brightness; for a* value: fresh meat redness; for b* value: fresh meat yellowness; for pH: meat
Procedure: as §1

Longissimus dorsi muscle [3] = assay: Shelf life study of refrigerated meat (colour, TBARS); format: in vivo, beef cattle of commercial breeds; settings: for TBA values (lipid oxidation) during shelf life: FIG. 2
Procedure: In order to estimate the antioxidant effect of ferulic acid, 5 chops of the meat samples were taken (5 experimental units) of the respective treatments, which were packed with traditional packaging (film wrapped) and subjected to a refrigeration process from 4 and 5° C. for 10 days in a room equipped for this purpose. During the shelf life (Day 1, 3, 5, 7 and 9 of storage) the objective color parameters mentioned above, as well as determination of substances reactive to thiobarbituric acid (TBARS) were evaluated according to the methodology described by Pfalzgraf et al. (1995). TBA values were expressed as substances reactive to 2-thiobarbituric acid (TBARS) in mg malonaldehyde/kg sample.
as §2

pigs = pigs supplemented with 50 ppm of ferulic acid; cited from earlier work
[4] = FA30 240 ppm or ZX 6 ppm, last 30 days of fattening
[5] = 240 ppm ferulic acid (FA30) or 6 ppm zilpaterol hydrochloride (ZX) in diet, last 30 days of fattening
[6] = 240 ppm ferulic acid (FA30) or 6 ppm zilpaterol hydrochloride (ZX), last 30 days of fattening
[7] = 240 ppm ferulic acid, last 60 days (FA60)
[8] = FA30 240 ppm or ZX 6 ppm, last 30 days of fattening, listed as FA30
[9] = 240 ppm ferulic acid in diet, last 60 days of fattening (FA60)
[10] = 240 ppm ferulic acid, last 60 days of fattening (FA60)

CC(CCc1ccc(O)cc1)NCC(O)c1ccc(O)cc1 (stereo not drawn) [ractopamine]
shear force of meat (feedlot steers): significant increase in the shear force

CC(C)N[C@@H]1CCn2c(=O)[nH]c3cccc(c32)[C@H]1O.Cl [ZX, zilpaterol hydrochloride, reference compound]
Tenderness (Longissimus dorsi muscle [1]; [4]): 6.85^a | Connective tissue perception (Longissimus dorsi muscle [1]; [4]): 1.42 | Fat perception (Longissimus dorsi muscle [1]; [4]): 3.34 | Flavor intensity (Longissimus dorsi muscle [1]; [4]): 6.56^a | Juiciness (Longissimus dorsi muscle [1]; [4]): 6.00^a | Odor intensity (Longissimus dorsi muscle [1]; [4]): 7.89 | Appearance (Longissimus dorsi muscle [1]; [4]): 7.17 | Overall Color (Longissimus dorsi muscle [1]; [4]): 7.41 | CY: carcass yield (beef cattle; [5]): 61.53^b % | FW: final weight (beef cattle; [5]): 579.4 kg | HCW: hot carcass weight (beef cattle; [5]): 356.34 kg | CCW: cold carcass weight (beef cattle; [5]): 350.62 kg | BFT: back fat thickness (beef cattle; [6]): 3.05 mm | PH24: pH at 24 h postmortem (beef cattle; [6]): 5.63 | REA: rib eye area (beef cattle; [6]): 15.41 Inch^2 | PH45: pH at 45 min postmortem (beef cattle; [6]): 6.17^a | Cooking loss (Longissimus dorsi muscle [2]; [6]): 19.20^b % | Fat content (Longissimus dorsi muscle [2]; [6]): 2.36% | Hue angle (Longissimus dorsi muscle [2]; [6]): 36.05 | Moisture (Longissimus dorsi muscle [2]; [6]): 73.02% | WHC: water holding capacity (Longissimus dorsi muscle [2]; [6]): 25.13% | SF: shear force (Longissimus dorsi muscle [2]; [6]): 10.37^b kg F | L* value (Longissimus dorsi muscle [2]; [6]): 35.34 | a* value (Longissimus dorsi muscle [2]; [6]): 16.39 | b* value (Longissimus dorsi muscle [2]; [6]): 11.95 | pH (Longissimus dorsi muscle [2]; [6]): 5.57

COc1cc(/C=C/C(=O)O)ccc1O [ferulic acid, trans-4-hydroxy-3-methoxy cinnamic acid]
Tenderness (Longissimus dorsi muscle [1]; [7]): 7.54^ab | Tenderness (Longissimus dorsi muscle [1]; [4]): more tender | Tenderness (Longissimus dorsi muscle [1]; [8]): 7.68^b | Connective tissue perception (Longissimus dorsi muscle [1]; [7]): 1.50 | Fat perception (Longissimus dorsi muscle [1]; [7]): 3.62 | Flavor intensity (Longissimus dorsi muscle [1]; [7]): 7.32^ab | Juiciness (Longissimus dorsi muscle [1]; [7]): 6.76^ab | Odor intensity (Longissimus dorsi muscle [1]; [7]): 7.90 | Connective tissue perception (Longissimus dorsi muscle [1]; [4]): 1.57 | Fat perception (Longissimus dorsi muscle [1]; [4]): 3.22 | Flavor intensity (Longissimus dorsi muscle [1]; [4]): better flavored | Juiciness (Longissimus dorsi muscle [1]; [4]): juicier | Odor intensity (Longissimus dorsi muscle [1]; [4]): 8.05 | Flavor intensity (Longissimus dorsi muscle [1]; [8]): 7.73^b | Juiciness (Longissimus dorsi muscle [1]; [8]): 7.09^b | Appearance (Longissimus dorsi muscle [1]; [7]): 7.11 | Overall Color (Longissimus dorsi muscle [1]; [7]): 7.65 | Appearance (Longissimus dorsi muscle [1]; [4]): 7.41 | Overall Color (Longissimus dorsi muscle [1]; [4]): 7.51 | FW: final weight (beef cattle; [5]): 553.5 kg | HCW: hot carcass weight (beef cattle; [5]): 336.42 kg | CCW: cold carcass weight (beef cattle; [5]): 331.13 kg | BFT: back fat thickness (beef cattle; [6]): 4.29 mm | PH24: pH at 24 h postmortem (beef cattle; [6]): 5.63 | REA: rib eye area (beef cattle; [6]): 14.54 Inch^2 | CY: carcass yield (beef cattle; [9]): 59.85^ab % | FW: final weight (beef cattle; [9]): 551.9 kg | HCW: hot carcass weight (beef cattle; [9]): 330.42 kg | CCW: cold carcass weight (beef cattle; [9]): 325.42 kg | BFT: back fat thickness (beef cattle; [10]): 4.38 mm | PH24: pH at 24 h postmortem (beef cattle; [10]): 5.61 | REA: rib eye area (beef cattle; [10]): 14.21 Inch^2 | PH45: pH at 45 min postmortem (beef cattle; [6]): 6.54^b | PH45: pH at 45 min postmortem (beef cattle; [10]): 6.33^ab | color parameter a* (redness) during shelf life (Longissimus dorsi muscle [3]; film wrapped meat at 4 and 5° C., days 1-9, 240 ppm ferulic acid last 30 days of fattening, FIG. 1, listed as FA30): delayed effect of the deterioration of the red color of the meat; also recorded: maintained the highest values of a* until day 7 of storage | TBA values (lipid oxidation) during shelf life (Longissimus dorsi muscle [3]; film wrapped meat at 4 and 5° C., days 1-9, 240 ppm ferulic acid last 30 days of fattening): lower; also recorded: smaller increases in TBA values | TBA values (lipid oxidation) during shelf life (Longissimus dorsi muscle [3]; film wrapped meat at 4 and 5° C., days 1-9, 240 ppm ferulic acid last 60 days of fattening): faster oxidation | photographic pattern of changes of meat color during shelf life (Longissimus dorsi muscle [3]; refrigerated storage, 240 ppm ferulic acid last 30 days of fattening, FIG. 3): maintain the red meat color with less changes until day 7 of storage | Cooking loss (Longissimus dorsi muscle [2]; [6]): 17.65^ab % | Fat content (Longissimus dorsi muscle [2]; [6]): 2.13% | Hue angle (Longissimus dorsi muscle [2]; [6]): 36.79 | Moisture (Longissimus dorsi muscle [2]; [6]): 73.10% | WHC: water holding capacity (Longissimus dorsi muscle [2]; [6]): 25.73% | Cooking loss (Longissimus dorsi muscle [2]; [10]): 19.65^b % | Fat content (Longissimus dorsi muscle [2]; [10]): 2.52% | Hue angle (Longissimus dorsi muscle [2]; [10]): 37.13 | Moisture (Longissimus dorsi muscle [2]; [10]): 73.41% | WHC: water holding capacity (Longissimus dorsi muscle [2]; [10]): 25.44% | SF: shear force (Longissimus dorsi muscle [2]; [6]): values significantly lower | SF: shear force (Longissimus dorsi muscle [2]; 240 ppm ferulic acid (FA30) or 6 ppm zilpaterol hydrochloride (ZX), last 30 days of fattening, listed as FA30): 7.94^a kg F | SF: shear force (Longissimus dorsi muscle [2]; [10]): 8.32^ab kg F | L* value (Longissimus dorsi muscle [2]; [6]): 36.66 | L* value (Longissimus dorsi muscle [2]; [10]): 35.74 | a* value (Longissimus dorsi muscle [2]; [6]): 16.86 | a* value (Longissimus dorsi muscle [2]; [10]): 17.55 | b* value (Longissimus dorsi muscle [2]; [6]): 12.53 | b* value (Longissimus dorsi muscle [2]; [10]): 13.22 | pH (Longissimus dorsi muscle [2]; [6]): 5.54 | pH (Longissimus dorsi muscle [2]; [10]): 5.57 | thickness of the dorsal fat (pigs): decrease in the thickness of the dorsal fat
